From article PMC7794397, “Curbing gastrointestinal infections by defensin fragment modifications without harming commensal microbiota” (Communications Biology, 2021)
Several values for one entry are separate records, joined by “and”; a condition that tells them apart may be missing. Equal values may be shown once. Residues, ends and D or L forms follow the SMILES beside them. *: point of attachment. Palmitoyl = CCCCCCCCCCCCCCCC(=O)*; AEEA = NCCOCCOCC(=O)O

Experiments:
[1] = tested on: several pathogenic bacteria; test: Radial diffusion assay, all tested strains; assay type: cell-based
Experimental: Antimicrobial activity was analyzed by radial diffusion assay. Log-phase bacteria were cultivated for up to 18 h in TSB (TSB, Becton Dickinson, USA), washed and diluted to 4 × 10^6 CFU in 10 ml agar. Bacteria were incubated in 10 ml of 10 mM sodium phosphate, pH 7.4, containing 0.3 mg/ml of TSB powder and 1% (w/v) low EEO-agarose (AppliChem). 1 µg of each lipopeptide was pipetted into punched wells in a final volume of 4 µl and diffused into the gel for 3 h at 37 °C. After that, a nutrient-rich gel with 6% TSB (w/v) and 1% agarose in 10 mM sodium phosphate buffer was poured on top of the first gel and incubated for up to 24 h at 37 °C. Then the diameter of inhibition zones was measured.

S. Typhimurium = test: Salmonella Typhimurium gastrointestinal infection in mice; assay type: in vivo, C57BL/6N mice; parameters: Body weight (% of initial): unit not given here
Experimental: For S. Typhimurium infections experiments, age- and sex-matched mice between 10 and 14 weeks of age were used. Both- female and male mice were used in experiments. […] Afterward, mice were supplied with water and food ad libitum. 20 h after streptomycin treatment, water and food were withdrawn again, 4 h before the mice were orally infected with 10^5 CFU of S. Typhimurium in 200 μl PBS. Drinking water ad libitum was supplied immediately and food 2 h post infection (p.i.). […] Mice were weighed every day to record potential body-weight loss. All mice were euthanized by asphyxiation with CO2 at indicated time points. Intestinal tissues (small intestine, cecum, colon) were removed aseptically. To collect intestinal content, organs were flushed with PBS. Organs were opened longitudinally, cleaned thoroughly with PBS and weighted. Organs and content were homogenized in PBS using a Polytron homogenizer ([…]).

[2] = tested on: multidrug resistant bacteria belonging to the ESKAPE pathogen panel; assay type: cell-based
Experimental: Bactericidal activity was assessed by broth microdilution assay. […] After incubation, 100 µl of 6% TSB (w/v) were added and absorbance was measured at 600 nm (Tecan, Switzerland) and monitored for 18 h. Afterward, 100 µl per well were plated on LB agar to determine the numbers of viable bacteria microbiologically. Bactericidal activity is expressed as the LC99.9, the lowest concentration that killed ≥99.9 % of bacteria.

S. aureus ATCC25923 = test: Treatment of established biofilms; assay type: cell-based; details: for viable bacteria in biofilm: 24 h old biofilm, 1 h treatment
Experimental: Then, planktonic bacteria were removed by two wash steps with PBS. […] Afterward, adherent bacteria in each well were resuspended, and the number of viable bacteria was determined microbiologically. […] The biofilm degradation assay was performed in agreement with the original report describing this method first.

S. aureus NCTC8325 = test: Bacterial membrane potential (DiOC2(3)); assay type: cell-based; details: 30 min of treatment
Experimental: For determination of membrane potential changes, S. aureus NCTC8325 was grown to log-phase in LB + 0.1% glucose, harvested and the optical density at 600 nm (OD600) was adjusted to 0.5. Bacteria were incubated with 30 µM 3,3′-diethyloxacarbocyanine iodide (DiOC2(3), Invitrogen™) for 15 min in the dark and treated with serial peptide concentrations for 30 min. The protonophore carbonyl cyanide m-chlorophenyl hydrazone (CCCP, Sigma Aldrich) was used as a positive control and DMSO or 0.01% acetic acid as negative controls. Fluorescence was measured at an excitation wavelength of 485 nm and two emission wavelengths, 530 nm (green) and 630 (nm) red, using a microplate reader (Tecan, Switzerland).

[3] = tested on: C. rodentium strain ICC180; test: Citrobacter rodentium gastrointestinal infection in mice; assay type: in vivo, C57BL/6N mice
Experimental: Bioluminescence expressing C. rodentium strain ICC180 was used for all infection experiments. C. rodentium inocula were prepared by culturing bacteria overnight at 37 °C in LB broth with 50 µg/ml kanamycin. Subsequently, the culture was diluted 1:100 in fresh medium, and sub-cultured for 4 h at 37 °C in LB broth. Bacteria were washed twice in phosphate-buffered saline (PBS). Mice were orally inoculated with 10^8 CFU of C. rodentium diluted in 200 µl PBS. Weight of the mice was monitored and feces were collected for measurements of the pathogen burden. After 5 days post infection mice received twice 250 µg peptide solved in 100 µl PBS or only PBS orally. The following day, mice were sacrificed to assess bacterial burden in the lumen and tissues of the cecum and the colon.
All mice were euthanized by asphyxiation with CO2 at indicated time points. Intestinal tissues (small intestine, cecum, colon) were removed aseptically. To collect intestinal content, organs were flushed with PBS. Organs were opened longitudinally, cleaned thoroughly with PBS and weighted. Organs and content were homogenized in PBS using a Polytron homogenizer (Kinemtatica). Dilutions of homogenized samples were plated on LB plates containing 50 μg/ml kanamycin to determine CFUs.

[4] = 250 µg orally 6 and 22 h p.i., 48 h after infection, individual animals, N = 12
[5] = two doses of 250 µg orally 5 days p.i., following day, individual animals, N = 11

CCCCCCCCCCCCCCCC(=O)NCCOCCOCC(=O)N[C@@H](CCCNC(=N)N)C(=O)NCC(=O)N[C@@H](CCCCN)C(=O)N[C@@H](C)C(=O)N[C@@H](CCCCN)C(=O)N[C@@H](CS)C(=O)N[C@@H](CS)C(=O)N[C@@H](CCCCN)C(=O)O [Pam-3] ({Palmitoyl-AEEA}-RGKAKCCK-OH; C-terminus assumed)
antimicrobial activity (in words) [1]: potent inhibition | S. Typhimurium in cecum content (S. Typhimurium; [4]): 101000000 CFU/ml and 19300000 CFU/ml and 209000000 CFU/ml and 369000000 CFU/ml and 338000000 CFU/ml and 343000000 CFU/ml and 185000000 CFU/ml and 11700000 CFU/ml and 392000000 CFU/ml and 49300000 CFU/ml and 19200000 CFU/ml and 26400000 CFU/ml | S. Typhimurium in cecum tissue (S. Typhimurium; [4]): 22792020 CFU/ml and 690476 CFU/ml and 510638 CFU/ml and 1770972 CFU/ml and 4139241 CFU/ml and 2249657 CFU/ml and 543580 CFU/ml and 809249 CFU/ml and 1834320 CFU/ml and 538642 CFU/ml and 466793 CFU/ml and 451429 CFU/ml | S. Typhimurium in small intestine content (S. Typhimurium; [4]): 19170.1 CFU/ml and 3500 CFU/ml and 430000 CFU/ml and 36000 CFU/ml and 2200 CFU/ml and 10400 CFU/ml and 20600 CFU/ml and 69000 CFU/ml and 70112.2 CFU/ml and 111188 CFU/ml and 78651.7 CFU/ml and 1597222 CFU/ml | S. Typhimurium in small intestine tissue (S. Typhimurium; [4]): 6700.17 CFU/ml and 99601.6 CFU/ml and 75335.4 CFU/ml and 1784.12 CFU/ml and 22916.7 CFU/ml and 29579.1 CFU/ml and 9803.92 CFU/ml and 82191.8 CFU/ml and 12841.1 CFU/ml and 8221.99 CFU/ml and 14925.4 CFU/ml and 10101 CFU/ml | Body weight (% of initial) (S. Typhimurium; Day 0 of S. Typhimurium infection, individual animals, N = 12): 100 | Body weight (% of initial) (S. Typhimurium; Day 1 of S. Typhimurium infection, 250 µg orally 6 and 22 h p.i., individual animals, N = 12): 94.8627 and 88.6861 and 93.3869 and 93.4108 and 92.7247 and 90.6285 and 93.2755 and 91.8377 and 90.7373 and 93.6733 and 93.6223 and 95.0622 | Body weight (% of initial) (S. Typhimurium; Day 2 of S. Typhimurium infection, 250 µg orally 6 and 22 h p.i., individual animals, N = 12): 94.2562 and 87.7476 and 94.3788 and 93.5562 and 89.4912 and 89.5623 and 93.1887 and 92.315 and 87.1434 and 90.8742 and 93.7891 and 93.0505 | weight loss during infection (in words) (S. Typhimurium; Fig. 6d): tends to reduce weight loss | CFU of S. Typhimurium in cecum content and tissue vs PBS (in words) (S. Typhimurium; Mann–Whitney p < 0.0001 and p = 0.0409): significantly reduced | bacterial load in small intestine content vs PBS (in words) (S. Typhimurium; Mann–Whitney p = 0.0024): lowered the bacterial load | bacterial load in small intestine tissue vs PBS (in words) (S. Typhimurium; Mann–Whitney p = 0.8621): without affecting | effective concentrations (LC99.9) across the panel ([2]; 18 different bacteria, three experiments each): 4.69 to 18.75 µM | overall measured mean effective concentration ([2]; 18 different bacteria, three experiments each, peer review file): 9.38 µM | bactericidal activity (in words) ([2]; broth microdilution, ESKAPE panel): highly effective | eradication of bacteria in biofilms (S. aureus ATCC25923; 300 µM, within 1 h, Kruskal–Wallis p = 0.0026): ~ 99.99% | viable bacteria in biofilm (S. aureus ATCC25923; 9.375 µM Pam-3, experiment 1): 43066667 CFU/ml | viable bacteria in biofilm (S. aureus ATCC25923; 9.375 µM Pam-3, experiment 2): 6050000 CFU/ml | viable bacteria in biofilm (S. aureus ATCC25923; 9.375 µM Pam-3, experiment 3): 15666667 CFU/ml | viable bacteria in biofilm (S. aureus ATCC25923; 18.75 µM Pam-3, experiment 1): 32200000 CFU/ml | viable bacteria in biofilm (S. aureus ATCC25923; 18.75 µM Pam-3, experiment 2): 3550000 CFU/ml | viable bacteria in biofilm (S. aureus ATCC25923; 18.75 µM Pam-3, experiment 3): 17250000 CFU/ml | viable bacteria in biofilm (S. aureus ATCC25923; 37.5 µM Pam-3, experiment 1): 27300000 CFU/ml | viable bacteria in biofilm (S. aureus ATCC25923; 37.5 µM Pam-3, experiment 2): 2333333 CFU/ml | viable bacteria in biofilm (S. aureus ATCC25923; 37.5 µM Pam-3, experiment 3): 5966667 CFU/ml | viable bacteria in biofilm (S. aureus ATCC25923; 75 µM Pam-3, experiment 1): 1496667 CFU/ml | viable bacteria in biofilm (S. aureus ATCC25923; 75 µM Pam-3, experiment 2): 239889 CFU/ml | viable bacteria in biofilm (S. aureus ATCC25923; 75 µM Pam-3, experiment 3): 3451667 CFU/ml | viable bacteria in biofilm (S. aureus ATCC25923; 150 µM Pam-3, experiment 1): 150333 CFU/ml | viable bacteria in biofilm (S. aureus ATCC25923; 150 µM Pam-3, experiment 2): 9167 CFU/ml | viable bacteria in biofilm (S. aureus ATCC25923; 150 µM Pam-3, experiment 3): 24500 CFU/ml | viable bacteria in biofilm (S. aureus ATCC25923; 300 µM Pam-3, experiment 1): 67 CFU/ml | viable bacteria in biofilm (S. aureus ATCC25923; 300 µM Pam-3, experiment 2): 333 CFU/ml | viable bacteria in biofilm (S. aureus ATCC25923; 300 µM Pam-3, experiment 3): 1300 CFU/ml | effect on membrane potential (in words) (S. aureus NCTC8325): breakdown of the membrane potential in a concentration-dependent manner | viable Citrobacter in colon content and colon tissue vs PBS (in words) ([3]; Mann–Whitney p = 0.0010 and p = 0.0104): significantly reduced | bacteria in cecum content and cecum tissue vs PBS (in words) ([3]; Mann–Whitney p = 0.0104 and p = 0.0473): reduced the number of bacteria | C. rodentium in cecum content [3, 5]: 20533880 CFU/g and 455636 CFU/g and 278413400 CFU/g and 15654650 CFU/g and 366007 CFU/g and 16133443 CFU/g and 143723333 CFU/g and 2819342 CFU/g and 262402624 CFU/g and 251094891 CFU/g and 226500566 CFU/g | C. rodentium in cecum tissue [3, 5]: 490000 CFU/g and 307086614 CFU/g and 556897 CFU/g and 3530864 CFU/g and 21702128 CFU/g and 74039735 CFU/g and 1204147 CFU/g and 780234 CFU/g and 18903800 CFU/g and 586941 CFU/g and 191336 CFU/g | C. rodentium in colon content [3, 5]: 1762185 CFU/g and 60751515 CFU/g and 1789819 CFU/g and 315018315 CFU/g and 310211946 CFU/g and 1173126615 CFU/g and 2621359 CFU/g and 289220 CFU/g and 25236170 CFU/g and 708075 CFU/g and 1616071 CFU/g | C. rodentium in colon tissue [3, 5]: 58623.6 CFU/g and 30241621 CFU/g and 100000 CFU/g and 24432209 CFU/g and 42962357 CFU/g and 13239974 CFU/g and 61561.6 CFU/g and 13820.3 CFU/g and 2719752 CFU/g and 44329.9 CFU/g and 628386 CFU/g
